In PMC10082830, “A tailored tetravalent peptide displays dual functions to inhibit amyloid β production and aggregation” (Communications Biology, 2023):
Bridge positions count the residues as written; N and C are the ends. Square brackets hold non-standard residues; d marks the D form. Peptide text beside a SMILES is read from it. I, II: the chains in the order shown. * marks the point of attachment. Cbz = O=C(OCc1ccccc1)*; Ahx = NCCCCCC(=O)O

Assays:
[1] = system: γ-cleavage of NotchΔE in 7WD10-NotchΔE cells; experiment: γ-Secretase assay in cells (NotchΔE cleavage); assay type: cell-based, Chinese Hamster; settings: 48 h, cell lysates, western blot with anti-Myc antibody; DAPT 10 µM
Experimental: (§1) 7WD10 cells were treated with vehicle control or LME-tet at the indicated concentrations for 48 h. Cell lysates were analyzed by western blot. b Effect of LME-tet on production of extracellular sAPPα and sAPPβ Schematic showing α- and β-cleavage sites (top). 7WD10 cells were treated as in (a) and sAPPα and sAPPβ in culture medium were analyzed by western blot (bottom left and right panels, respectively). a, b APP and sAPPα were detected using anti-APP antibody 6E10, and sAPPβ was detected using anti-sAPPβ antibody. Data are graphed as the percentage of the control value, showing the mean ± SE; n = 3–4. Significance vs. vehicle was calculated by ANOVA, followed by one-sided Dunnett’s test; *P < 0.05, **P < 0.01, ***P < 0.001. c Effect of LME-tet on β-cleavage of β-galactoside α-2,6- sialyltransferase 1 (St6gal1) and γ-cleavage of NotchΔE. 7WD10-NotchΔE-St6gal1 cells were treated with LME-tet at the indicated concentrations and β-secretase inhibitor II (βi; 10 µM) for 48 h; culture medium was analyzed by western blot using anti-St6gal1 antibody (left panel). 7WD10-NotchΔE cells were treated with LME-tet at the indicated concentrations and γ-secretase inhibitor DAPT (γi; 10 µM) for 48 h; cell lysates were analyzed by western blot using anti-Myc antibody (right panel). […] Aβ33-FLAG (left) and Aβ (right) were measured by western blot using anti-Aβ antibody 82E1. […]

Aβ40 = target: T1, Aβ40 (Homo sapiens, UniProt P05067); experiment: ELISA binding between Aβ and LME peptides; settings: Aβ40, n = 4, read-out: apparent Kd
T1 construct: purchased Peptide Institute
Experimental: (§2) The indicated amounts of LME-tet (8.3 µM) or LME-mono (33 µM) were applied onto each well of a regular 96-well ELISA plate (Thermo Fisher Scientific) and incubated overnight for 24 h. After blocking, the plate was incubated with various concentrations of Aβ1–28, Aβ40, or Aβ42 (Peptide Institute) for 2 h at room temperature. Bound Aβ was detected using mouse monoclonal anti-human Aβ antibody 82E1 (Immuno-Biological Laboratories Co., Ltd.) and HRP-conjugated horse anti-mouse IgG antibody (Cell Signaling Technology).

Aβ42 = target: T2, Aβ42 (Homo sapiens, UniProt P05067); experiment: ELISA binding between Aβ and LME peptides; settings: Aβ42, n = 3, read-out: apparent Kd
T2 construct: purchased Peptide Institute
Experimental: as §2

7WD10 cells = experiment: Incorporation of biotinylated tetravalent peptides into 7WD10 cells, confocal microscopy; assay type: cell-based, Chinese Hamster; settings: biotinylated peptide 50 µM, 37 °C, 1 h, Alexa Fluor 488-streptavidin
Experimental: Supplementary Fig. 10: Efficient incorporation of […] into cells.
7WD10 cells were cultured at 37° C for 1 h in the presence of biotinylated LME-tet or PME-tet
(50 µM). Biotinylated peptide was detected using Alexa Fluor 488-conjugated streptavidin.
Fluorescence images were obtained using confocal laser scanning microscopy to assess the
incorporation of tetravalent peptides into cells. The scale bars indicate 10 µm.

[2] = system: β-cleavage of St6gal1 in 7WD10-NotchΔE-St6gal1 cells; experiment: β-Secretase assay in cells (St6gal1 cleavage); assay type: cell-based, Chinese Hamster; settings: 48 h, culture medium, western blot; β-secretase inhibitor II 10 µM
Experimental: as §1

T1 sequence (P05067 672-711 limits assumed): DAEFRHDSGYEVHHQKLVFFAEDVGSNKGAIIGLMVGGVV
T2 sequence (P05067 672-713 limits assumed): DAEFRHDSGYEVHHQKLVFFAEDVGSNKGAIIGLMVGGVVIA

## C[C@H](NC(=O)Cc1cc(F)cc(F)c1)C(=O)N[C@H](C(=O)OC(C)(C)C)c1ccccc1 [DAPT]
[1]
  production of NICD: efficiently inhibits

## CSCC[C@H](NC(=O)[C@H](CCCNC(=N)N)NC(=O)[C@H](CC(C)C)NC(=O)[C@H](CCCCN)NC(=O)[C@@H]1CCCN1)C(=O)N[C@@H](CCCCN)C(=O)N[C@@H](CCC(=O)O)C(=O)NCCCCCC(=O)NCCCC[C@H](NC(=O)CCCCCNC(=O)[C@H](CCC(=O)O)NC(=O)[C@H](CCCCN)NC(=O)[C@H](CCSC)NC(=O)[C@H](CCCNC(=N)N)NC(=O)[C@H](CC(C)C)NC(=O)[C@H](CCCCN)NC(=O)[C@@H]1CCCN1)C(=O)NCCCC[C@H](NC(=O)[C@H](CCCCNC(=O)CCCCCNC(=O)[C@H](CCC(=O)O)NC(=O)[C@H](CCCCN)NC(=O)[C@H](CCSC)NC(=O)[C@H](CCCNC(=N)N)NC(=O)[C@H](CC(C)C)NC(=O)[C@H](CCCCN)NC(=O)[C@@H]1CCCN1)NC(=O)CCCCCNC(=O)[C@H](CCC(=O)O)NC(=O)[C@H](CCCCN)NC(=O)[C@H](CCSC)NC(=O)[C@H](CCCNC(=N)N)NC(=O)[C@H](CC(C)C)NC(=O)[C@H](CCCCN)NC(=O)[C@@H]1CCCN1)C(N)=O [LME-tet] (I: H-PKLRMKE[Ahx]KK-NH2 / II: H-PKLRMKE[Ahx]K / III: H-PKLRMKE[Ahx] / IV: H-PKLRMKE[Ahx]; amide I:9-IV:C, I:10-II:C, II:9-III:C)
Aβ40
  Kd: 2700 nM
Aβ42
  Kd: 200 nM
7WD10 cells
  efficiency of incorporation into cells: much higher efficacy than PME-tet

## CC(C)C[C@@H](C=O)NC(=O)[C@H](CC(C)C)NC(=O)[C@@H](NC(=O)OCc1ccccc1)C(C)C [β-secretase inhibitor II] (Cbz-Val-Leu-Leu-aldehyde)
[2]
  production of extracellular St6gal1 fragment: completely suppressed
